Data reported in paper PMC6736360, “P-Glycoprotein–Mediated Efflux Reduces the In Vivo Efficacy of a Therapeutic Targeting the Gastrointestinal Parasite Cryptosporidium” (The Journal of Infectious Diseases, 2019).
≈ marks a conversion by molar mass, not a printed value. Entries after “also recorded” stand apart in the source; their conditions may differ. Where two headings read alike, the source gives them in different places.

Columns and labels:
Cryptosporidium parvum = assay: C. parvum growth inhibition, nonpolarized HCT-8 coculture assay; type: cell-based; details: Cryptosporidium parvum
Excerpt: Information regarding C. parvum growth inhibition by BKIs, the hollow fiber model, liquid chromatography–tandem mass spectrometry (LC-MS/MS) methods, and the interferon γ (IFN-γ) knockout (KO) mouse model of C. parvum infection has been described in detail previously [[15], [20–23]]. Information on BKI permeability, LC-MS/MS quantification of elacridar, and quantification of Cryptosporidium by polymerase chain reaction analysis is described in the Supplementary Materials. Unless noted otherwise, statistical significance was determined with an unpaired Student t test, using a significance level of 0.05.
To evaluate the potential impact of P-gp efflux on BKI1318 in vitro efficacy, in vitro assays with polarized and nonpolarized HCT-8 cells were evaluated. The nonpolarized HCT-8 coculture assay to screen anti-Cryptosporidium drug candidates has been previously reported by us in detail. […] Based on the reported elacridar half maximal inhibitor concentration for the inhibition of P-gp, the P-gp activity was predicted to be reduced with both elacridar concentrations. […] Elacridar alone had no effect on C. parvum levels.

P-gp = target: T1, P-gp (Homo sapiens, UniProt P08183); assay: Caco-2 P-gp efflux assay +/- valspodar; type: in vitro ADME; details: for P-gp Substrate Classification: Caco-2
T1 construct: endogenous in cells; host or cells: Caco-2 cells (clone C2BBe1, ATCC); assay run by Absorption Systems LP
T1 sequence (P08183 whole entry): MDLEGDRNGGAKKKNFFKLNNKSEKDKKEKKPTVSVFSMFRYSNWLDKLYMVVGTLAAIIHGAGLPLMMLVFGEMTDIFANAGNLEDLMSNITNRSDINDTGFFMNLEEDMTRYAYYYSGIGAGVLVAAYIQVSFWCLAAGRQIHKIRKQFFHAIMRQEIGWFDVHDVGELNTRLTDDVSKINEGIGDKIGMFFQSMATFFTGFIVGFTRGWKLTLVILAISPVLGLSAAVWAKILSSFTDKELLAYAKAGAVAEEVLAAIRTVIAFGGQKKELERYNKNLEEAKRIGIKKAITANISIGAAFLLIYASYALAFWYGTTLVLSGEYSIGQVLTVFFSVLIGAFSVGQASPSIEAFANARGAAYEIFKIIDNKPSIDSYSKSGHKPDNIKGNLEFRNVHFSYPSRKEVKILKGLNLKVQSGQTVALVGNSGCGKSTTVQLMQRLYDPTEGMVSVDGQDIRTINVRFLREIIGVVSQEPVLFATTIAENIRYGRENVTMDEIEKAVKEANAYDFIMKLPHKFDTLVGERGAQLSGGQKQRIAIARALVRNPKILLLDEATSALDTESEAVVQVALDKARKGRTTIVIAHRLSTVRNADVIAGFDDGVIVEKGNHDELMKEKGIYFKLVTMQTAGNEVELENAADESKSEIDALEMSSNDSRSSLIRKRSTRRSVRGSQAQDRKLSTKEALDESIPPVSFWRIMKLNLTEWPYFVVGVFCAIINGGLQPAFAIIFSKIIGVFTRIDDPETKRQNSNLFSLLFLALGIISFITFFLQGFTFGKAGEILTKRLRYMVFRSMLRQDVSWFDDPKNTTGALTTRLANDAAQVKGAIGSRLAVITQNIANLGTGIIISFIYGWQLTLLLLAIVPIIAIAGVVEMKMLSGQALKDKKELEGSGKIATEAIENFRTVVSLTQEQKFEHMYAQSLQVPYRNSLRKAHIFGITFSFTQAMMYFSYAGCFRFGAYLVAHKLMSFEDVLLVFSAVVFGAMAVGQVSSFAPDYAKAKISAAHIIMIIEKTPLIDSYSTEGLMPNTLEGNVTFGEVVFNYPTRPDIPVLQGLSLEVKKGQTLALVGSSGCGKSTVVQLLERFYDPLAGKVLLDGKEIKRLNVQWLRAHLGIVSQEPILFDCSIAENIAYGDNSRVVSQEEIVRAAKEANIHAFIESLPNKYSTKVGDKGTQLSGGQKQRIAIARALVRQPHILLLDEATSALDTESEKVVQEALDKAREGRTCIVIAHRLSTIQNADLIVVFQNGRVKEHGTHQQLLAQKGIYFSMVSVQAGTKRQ
Excerpt: Given the well-known role of P-gp in the efflux of many diverse drugs, the adenosine triphosphate–binding cassette (ABC) transporter was specifically chosen for initial studies, to identify the transporter responsible for BKI1318’s relatively low Papp. A Caco-2 system with overexpression of P-gp was used to verify the role of P-gp in BKI1318 transport (Supplementary Table 2). […] It should be noted that this experiment characterized the importance of P-gp with a single concentration of BKI1318. The kinetics of BKI1318 transport mediated by P-gp are still unknown, and it is not clear how the fraction of absorption mediated by P-gp transport will change with different concentrations of BKI1318.
To ensure no damage was inflicted to the cell monolayers during the flux period, lucifer yellow flux was also measured post-experimentally for each monolayer. To determine whether BKIs 1294, 1369, and 1318 were substrates of P-gp in vitro, P-gp efflux was characterized using the Caco-2 permeability assay protocol with a few modifications. The dosing solution concentration was 5 μM of BKI in the assay buffer +/- 1 μM valspodar. Cells were first pre-incubated for 30 minutes with HBSS containing +/- 1 μM valspodar. Cell monolayers were dosed on the apical side (A?B) or basolateral side (B?A), and incubated at 37°C with 5% CO2 in a humidified incubator. Samples were taken from the donor and receiver chambers at 120 minutes. Each determination was performed in duplicate.

[1] = Mouse oral plasma pharmacokinetics with or without elacridar; type: in vivo, mice; details: for AUC(0-inf) / Cmax / Tmax: mouse, plasma, po, mouse plasma, oral, 1369 60 mg/kg, 1318 50 mg/kg
Experimental: Mouse oral pharmacokinetic (PK) studies were performed as previously described^1. Briefly, blood samples were taken by tail bleeding into heparinized tubes at designated time points and centrifuged to obtain plasma. The samples were frozen and stored at -20°C until extraction and analysis. PK calculations of Tmax, Cmax, AUC, oral clearance, and half-life were performed using Pharsight Phoenix WinNonlin software (Certara, St. Louis, MO).

Cryptosporidium = system: Cryptosporidium; parameters: method as in PMID 28329187; details: cited from earlier work
C. parvum = assay: Hollow fiber in vitro Cryptosporidium culture with polarized HCT-8 cells; type: cell-based, Cryptosporidium parvum
Experimental: C. parvum was cultured using a hollow fiber bioreactor modified for evaluation of potential chemotherapeutic compounds [[21–23]]. Briefly, the system used a 20-kD MWCO polysulfone fiber cartridge (FiberCell Systems, Frederick, MD). HCT-8 cells were grown on the outer surface of the fibers (extracapillary space), and reservoirs were used to provide nutrients to the cells. When the glucose concentration decreased to at least 2 g/L, the extracapillary space was inoculated with 10^6C. parvum (Iowa isolate, Bunch Grass Farms, Deary, ID). […] Compound concentration was reduced over time by the flow of medium through the extracapillary and intracapillary spaces. Samples were removed from the extracapillary space once per day for evaluation of parasite numbers.
C. parvum growth was determined by analysis of the amount of C. parvum 18S-rRNA present and compared to the HCT-8 18S-rRNA as previously described^3. Briefly this was performed by centrifugation at 14,000 x g for 5 min of 0.5 mL samples collected from the extracapillary space (ECS). The pellet was resuspended in 100 µL of iScript buffer and subject to 6-freeze/thaw cycles comprising 1 min in liquid nitrogen followed by 1.5 min at 70 °C. The lysate was collected by centrifugation at 16,162 x g for 5 min, and the RNA purified according to the manufacturer’s instructions (iScriptTM, RT-qPCR sample preparation kit, Bio-Rad Laboratories). C. parvum was enumerated by quantitating the Cp18S-rRNA using the following specific forward and reverse primers - Cp18S-995F: 5’-[…]-3’ and Cp18S-1206R: 5’-[…]-3’ and compared to the human Hs18S-rRNA using the following primer sets - Hs18S-F1373: 5’-[…]-3’ and Hs18S-R1561: 5’-[…]-3’. The amount of 18S-rRNA was determined using 5 ng samples by RT-qPCR as described the manufacturer instructions using a Luna Universal One-Step® RT-qPCR kit (New England Biologics) and a Quant Studio 6 Flex 44 instrument. The cell number is calculated from the CT means using a set of standards prepared from 10^4, 10^5, and 10^6 C. parvum oocysts and compared to 10^4, 10^5, and 10^6 HCT-8 cells.

[2] = In vitro solubility at pH 2 and 6.5; type: physicochemical
Experimental: Figure 1. Structures, in vitro efficacy, and physicochemical properties of bumped kinase inhibitors (BKIs). […] Solubilities for each BKI were measured at pH 2 and 6.5, to represent the stomach and small intestinal environments, respectively. The human effective permeability (Peff) was predicted as described in Materials and Methods.

[3] = HCT-8, in vitro, read-out: C. parvum EC50
[4] = mice, 50 mg/kg oral, 30 mg/kg elacridar, P < .05
[5] = 30 mg/kg elacridar 15 minutes before, read-out: AUC0-inf w/ Elacridar
[6] = 30 mg/kg elacridar 15 minutes before, read-out: Cmax w/ Elacridar
[7] = 30 mg/kg elacridar 15 minutes before, read-out: Tmax w/ Elacridar
[8] = pH 2, represents stomach, read-out: Solubility (pH 2)

| EC50 (Cryptosporidium parvum; [3]) [µM] | P-gp Substrate Classification (P-gp) | AUC(0-inf) [1, 5] [µM·h] | Cmax [1, 6] [nM] | Tmax [1, 7] [h] | AUC(0-inf) ([1]; alone, read-out: AUC0-inf) [µM·h] | Cmax ([1]; alone, read-out: Cmax) [nM] | Tmax ([1]; alone, read-out: Tmax) [h] | solubility [2, 8] [µM] | SMILES | Efficacy in neonatal mouse model of Cryptosporidium infection (Cryptosporidium) | further results |
| --- | --- | --- | --- | --- | --- | --- | --- | --- | --- | --- | --- |
| 3.2 | Positive | 12 ± 1.6 | 1800 | 2 | 6.6 ± 1.7 | 1000 | 2.3 | > 100 | CCOc1ccc2cc(-c3nn(CC4CCNCC4)c4ncnc(N)c34)ccc2n1 [BKI1318] | efficacious | EC50 (Cryptosporidium parvum; nonpolarized HCT-8 cells, BKI1318 alone, read-out: EC50 (±standard error) against C. parvum): 1.6 ± 1.5 µM; efflux ratio at 120 min, 5 µM (P-gp; human, pH 7.4, Caco-2 with overexpression of P-gp, 5 μM, no inhibitor): 19; Oral clearance with elacridar, fold greater than observed for BKI1369 ([1]; mice): 5 fold; Oral clearance (clearance/bioavailability) with elacridar coadministration ([1]; mice, 50 mg/kg oral, 30 mg/kg elacridar): 207 mL/h; Increase of plasma AUC0–∞ by elacridar coadministration [1, 4]: approximately 2 fold; Increase of plasma Cmax by elacridar coadministration [1, 4]: approximately 2 fold; Effect on C. parvum levels/growth (C. parvum; hollow fiber model, compound alone, 80 µM once daily): did not decrease; also recorded: no effect; Effect on C. parvum levels with elacridar coadministered (C. parvum; hollow fiber model, elacridar coadministered): reduced C. parvum levels by an order of magnitude; Reduction in C. parvum levels with elacridar (80 µM) coadministered (C. parvum; hollow fiber, 80 µM BKI1318 once daily plus 80 µM elacridar): approximately 1 log; solubility ([2]; pH 6.5, represents small intestine, read-out: Solubility (pH 6.5)): 56 µM (≈ 22.6 µg/mL) |
| 2.3 | Negative | 91.4 ± 5 | 4100 ± 300 | 4 ± 1.6 | 75.6 ± 8.9 | 4200 | 2 | > 100 | CCOc1ccc2cc(-c3nn(CC4CCN(C)CC4)c4ncnc(N)c34)ccc2n1 [BKI1369] | efficacious | Change in plasma pharmacokinetics when elacridar administered before ([1]; mice, 60 mg/kg oral, 30 mg/kg elacridar): not a significant change; also recorded: not significantly different; Reduction of C. parvum levels over the course of the study (C. parvum; hollow fiber model, polarized HCT-8 cells): > 3 orders of magnitude |
